Test results published in patent US9730906B2, “α-derivatives of cis-monounsaturated fatty acids for use as medicines” (UNIVERSITAT DE LES ILLES BALEARS, priority 2008, dated 2017).

Tests used:
Type in all cases: cell-based, human
cadherin = experiment: Cadherin levels in A549 cells (antibody, confocal microscopy); details: 50 μM OHOD (48 h)
Procedure: FIG. 4. Cancer cells (A549) were incubated in the absence (FIG. 4A) and presence (FIG. 4B) of OHOD ([…], 48 h). Then they were fixed, incubated in the presence of an antibody against cadherin and were observed by confocal microscopy. Treatments with 50 μM OHOD (48 h) induced an increase of 73.6±5.4% in the levels of this protein. In treatments with the fatty acids of the invention, a significant increase in cadherin levels was observed.
Furthermore, α-derivatives of cis-monounsaturated fatty acids are capable of inducing cadherin expression. Cadherin is a cellular adhesion protein. Cells expressing cadherin are often not displaced from their tissue location as they adhere to the surrounding cells. Tumour cells that lose the capacity to synthesise this protein can migrate from the tissue in which they were generated to other body tissues where they can develop a new tumour focus by the process known as metastasis. In treatments with α-derivatives of cis-monounsaturated the fatty acids, a significant increase in cadherin levels was observed (FIG. 4). The invasive capacity of cancer cells was also investigated in a culture plate invasion model. […] Then, an area of the culture dish is scraped and the number of cells invading this region at various times, in the presence and absence of the anti-metastasis compound is counted.

LNcaP = experiment: Effect of OHOD on cancer cells in culture (Table 2); parameters: key to Anti-tumour effect: + [inhibition of growth]; ++ [total halt of growth]; +++ [total removal of tumour cells]; key to Mechanism of action: P [anti-proliferative]; D [differentiation]; A [apoptosis]; details: Prostate
Procedure: (§1) Also, a series of α-derivatives of cis-monounsaturated fatty acids were used to investigate their effectiveness in cancer treatment. Two types of experiment were performed. Firstly, the dependency of the anti-tumour effect on concentration was investigated. To perform these experiments, human lung cancer cells (A549) were cultivated in RPMI medium, supplemented with 10% foetal bovine […], 10 mM Hepes (pH 7.4), 2 mM glutamine, 2 g/l bicarbonate, 1 g/l glucose, 100 units/ml penicillin, 0.1 mg/ml streptomycin, 0.25 μg/ml Amphotericin B, at 37° C. and in the presence of 5% CO2. In a first experimental series, these cells were treated with various concentrations (0-400 μM) of OHOD and MOD11 and the number of cells was determined by flow cytometry (FIG. 3A). […] In a second series, the anti-tumour effectiveness on A549 lung cancer cells was investigated at a single concentration (150 μM) and a time of 48 hours (FIG. 3B). […] Obviously, among the previous molecules, some lacked both modifications on the α-carbon and the double bond in cis configuration (EO, HDO, ODO) and had no therapeutic effect.
(§2) In a second experimental series, designed to discover whether these molecules are effective in treatment of different types of tumours, the effect of OHOD at various concentrations on human cells of different types of cancer was studied. These experiments were performed as described before, except that the M220 and HT-29 cell lines were cultured in DMEM medium and the MDA-MB-231 line was incubated in Leibowitz L-15 medium supplemented with 15% foetal bovine […]. […] Where the nature of the tumour process requires, application can be topical (use on the skin of active products for the treatment of melanoma and other cutaneous abnormalities of cancerous nature), which can be considered as cosmetic treatments when attempts are made to correct aesthetic defects.

Jurkat = experiment: as above; parameters: key to Anti-tumour effect: + [inhibition of growth]; ++ [total halt of growth]; +++ [total removal of tumour cells]; key to Mechanism of action: P [anti-proliferative]; D [differentiation]; A [apoptosis]; details: Lym-Leukaemia
Procedure: as §1, §2

L-1210 = experiment: as above; parameters: key to Anti-tumour effect: + [inhibition of growth]; ++ [total halt of growth]; +++ [total removal of tumour cells]; key to Mechanism of action: P [anti-proliferative]; D [differentiation]; A [apoptosis]; details: L-1210, Lym-Leukaemia
Procedure: as §1, §2

SH-SY5Y = experiment: as above; parameters: key to Anti-tumour effect: + [inhibition of growth]; ++ [total halt of growth]; +++ [total removal of tumour cells]; key to Mechanism of action: P [anti-proliferative]; D [differentiation]; A [apoptosis]; details: Neuroblastoma
Procedure: as §1, §2

A172 = experiment: as above; parameters: key to Anti-tumour effect: + [inhibition of growth]; ++ [total halt of growth]; +++ [total removal of tumour cells]; key to Mechanism of action: P [anti-proliferative]; D [differentiation]; A [apoptosis]; details: A172, Glioma
Procedure: as §1, §2

MDA-MB-231 = experiment: as above; parameters: key to Anti-tumour effect: + [inhibition of growth]; ++ [total halt of growth]; +++ [total removal of tumour cells]; key to Mechanism of action: P [anti-proliferative]; D [differentiation]; A [apoptosis]; details: MDA-MB-231, Breast
Procedure: as §1, §2

M220 = experiment: as above; parameters: key to Anti-tumour effect: + [inhibition of growth]; ++ [total halt of growth]; +++ [total removal of tumour cells]; key to Mechanism of action: P [anti-proliferative]; D [differentiation]; A [apoptosis]; details: M220, Pancreas
Procedure: as §1, §2

T98G = experiment: as above; parameters: key to Anti-tumour effect: + [inhibition of growth]; ++ [total halt of growth]; +++ [total removal of tumour cells]; key to Mechanism of action: P [anti-proliferative]; D [differentiation]; A [apoptosis]; details: Glioma
Procedure: as §1, §2

A118 = experiment: as above; parameters: key to Anti-tumour effect: + [inhibition of growth]; ++ [total halt of growth]; +++ [total removal of tumour cells]; key to Mechanism of action: P [anti-proliferative]; D [differentiation]; A [apoptosis]; details: A118, Glioma
Procedure: as §1, §2

HT-29 = experiment: as above; parameters: key to Anti-tumour effect: + [inhibition of growth]; ++ [total halt of growth]; +++ [total removal of tumour cells]; key to Mechanism of action: P [anti-proliferative]; D [differentiation]; A [apoptosis]; details: HT-29, Colon
Procedure: as §1, §2

## CCCCCCCC/C=C\CCCCCCC(O)C(=O)O (stereo not drawn) [OHOD, α-Hydroxy-cis-Δ9-octadecenoic]
cadherin
  increase in the levels of cadherin: 73.6±5.4%
LNcaP
  Anti-tumour effect: +++
  Mechanism of action: A
Jurkat
  Anti-tumour effect: +++
  Mechanism of action: A
L-1210
  Anti-tumour effect: +++
  Mechanism of action: A
SH-SY5Y
  Anti-tumour effect: +
  Mechanism of action: P
A172
  Anti-tumour effect: ++
  Mechanism of action: D
MDA-MB-231
  Anti-tumour effect: ++
  Mechanism of action: A
M220
  Anti-tumour effect: ++
  Mechanism of action: A
T98G
  Anti-tumour effect: +++
  Mechanism of action: D
A118
  Anti-tumour effect: +++
  Mechanism of action: D
HT-29
  Anti-tumour effect: ++
  Mechanism of action: A
